Source: paper PMC7221892, “In Vitro and in Vivo Activity of mTOR Kinase and PI3K Inhibitors Against Leishmania donovani and Trypanosoma brucei” (Molecules, 2020)

What was measured:
[1] = system: intracellular L. donovani; assay: Intracellular L. donovani in THP-1 cells, dose-dilution high-content imaging assay; format: cell-based; conditions: for activity confirmation in dose-dilution assays: intracellular L. donovani EC50 / THP-1 CC50, result in words; for EC50: Leishmania donovani, THP-1 cells infected with L. donovani, 72 h, duplicate measurements, read-out: Intracellular L. donovani EC50 ± SD; for Selectivity Index (SI): SI = THP-1 CC50/Intracellular L. donovani EC50
Procedure: (§1) PMA-treated THP-1 human monocytic cells were seeded at 0.8 × 10^4 cells per well in a 384-well culture plate (Greiner Bio-One, Kremsmünster, Austria) in RPMI-1640 complete medium supplemented with 10% FBS. After 48 h of incubation at 37 °C in the presence of 5% CO2, the promastigotes of L. donovani that were incubated with lectin for 30 min at 28 °C were added to the cells at a parasite to cell ratio of 20:1. […] The negative control consisted of THP-1 infected with the parasite with only 0.5% DMSO. After 72 h, the cells that were infected and treated with the drug were washed with serum-free RPMI-1640 medium. The cells and parasites were stained using 5 μM DRAQ5 and 4% PFA. The images were acquired based on reading using an Operetta® automated microscope (PerkinElmer, Inc., Waltham, MA 02451 USA). They were further analyzed using Columbus^TM (PerkinElmer, Inc. Waltham, MA, USA) software to quantify parasite numbers, host cell numbers, and infection ratios. In brief, large-sized nucleus of host cells was first detected using Draq-5 (Thermo Fisher, Rockford, IL, USA) signal and the host cell boundary masking was performed using the low-intensity signals from cytosols (additional feature of Draq-5). Then the small-sized nucleus signal by Draq-5 was used to identify parasites within the area of masked host cell. Infection ratio (IR) was determined with the value of the number of infected cells divided by total number of cells and the average number of parasites per macrophage (P/φ) was defined by the value of the number of parasites divided by the number of infected cells in the acquired image.
(§2) All of the half maximal effective concentrations (EC50) and the half maximal cytotoxic concentrations (CC50) values were calculated using two independent experiments. The dose-response curves were fitted using GraphPad Prism 6 software (GraphPad Software, San Diego, CA, USA) by using a sigmoidal dose-response equation with a variable hill slope option.

[2] = system: L. donovani promastigotes; assay: L. donovani promastigote growth inhibition (resazurin); format: cell-based; conditions: Leishmania donovani, 72 h, 3 days exposure, read-out: L. donovani Promastigote EC50 ± SD
Procedure: (§3) L. donovani promastigote and T. b. brucei Lister 427 BSF growth inhibition were assayed by measuring the conversion of resazurin to resorufin. The assays were performed in 384-well plates that were seeded with L. donovani promastigotes or T. brucei 427 BSF (5 × 10^4 cells per well). After seeding, the parasites were exposed to the compounds for 3 days. Resazurin sodium salt (200 μM; R7017; Sigma-Aldrich, St. Louis, MO, USA) was then added, and the samples were incubated for 5 h. After incubation, the parasites were fixed using 4% paraformaldehyde, and the plates were analyzed using a Victor3^TM plate reader (PerkinElmer, Inc., Waltham, MA, USA) at 590 nm (emission) and 530 nm (excitation). […] Pentamidine was used for the T. b. brucei Lister 427 BSF growth inhibition assay.
as §2

[3] = Host cell cytotoxicity (CC50) in infected THP-1 cells, dose-dilution assay; format: cell-based; conditions: human, infected THP-1 host cells, read-out: THP-1 Cell CC50 ± SD
Procedure: as §1, §2

[4] = system: intracellular L. donovani; assay: Pilot high-content screening against intracellular L. donovani at 10 μM; format: cell-based; conditions: screening concentration 10 µM
Procedure: as §1, with “image. The average IR value of the negative control wells was calculated as 0.53. Compounds selected based on the screening results were further assessed in a dose-dilution manner (two-fold serial dilution for 20 points starting from 100 μM) using the same method.” for “image.”

[5] = system: T. b. brucei Lister 427 BSF; assay: T. b. brucei Lister 427 bloodstream form growth inhibition (resazurin); format: cell-based; conditions: Trypanosoma brucei, 72 h, 3 days exposure, read-out: T. brucei Lister 427 BSF EC50 ± SD
Procedure: as §3, §2

L. donovani = assay: VL mouse model (L. donovani-infected BALB/c mice); format: in vivo; conditions: miltefosine 30, Torin2 15, dactolisib 50, NVP-BGT226 5 mg/kg; for Inhibition of L. donovani In Vivo (%) (Mean ± SD): liver parasite burden vs vehicle, per os 5 days; for LDU in the Liver (Mean ± SD): once daily per os for 5 days from day 7 post-infection
Procedure: The highest dose for each compound without showing adverse effects was selected based on literature search. The vehicle for the compounds was 5% N-methylpyrrolidone, 15% polyvinylpyrrolidone, and 80% deionized water. Drug dosing solutions were freshly prepared each day. All drugs were administered once daily for 5 days via the per os route. On day 16 post-infection, all animals were humanely euthanized and assessed microscopically using Giemsa-stained liver imprints. Parasite burdens were measured by counting (blinded to treatment) the number of amastigotes per 1000 cell nuclei and multiplying this number by the liver weight (mg) (Leishman-Donovan Unit: LDU). The LDU values for the drug-treated samples were compared to those of the untreated samples, and the percent inhibition values were calculated.

With `CN1[C@@H]2CC[C@H]1CC(OC(c1ccccc1)c1ccc(Cl)cc1)C2` (stereo partly drawn) [3-CPMT] the “activity confirmation in dose-dilution assays” value (shortened to “activity confirmation”) [1] was “either low activity (half maximal effective concentration, EC50) or high toxicity (CC50)”.
`C[C@@H]1[C@H](O)[C@@H](C)/C=C/C=C/C=C/C=C/C=C/C=C/C=C/[C@H](O[C@@H]2O[C@H](C)[C@@H](O)[C@H](N)[C@@H]2O)C[C@@H]2O[C@](O)(C[C@@H](O)C[C@@H](O)[C@H](O)CC[C@@H](O)C[C@@H](O)CC(=O)O[C@H]1C)C[C@H](O)[C@H]2C(=O)O` [Amphotericin B] showed an EC50 [2] of 0.015 ± 0.003 µM, a CC50 at 72 h [3] of over 4 µM and an EC50 [1] of 0.34 ± 0.04 µM. For the same compound, the “Selectivity Index (SI)” value [1] was over 11.8.
For `CC[C@H](Nc1ncnc2[nH]cnc12)c1nc2cccc(F)c2c(=O)n1-c1ccccc1` [CAL-101], the “inhibition of intracellular parasite survival in screening” value (shortened to “inhibition … in screening”) [4] was “no direct effects on the parasite”.
For `Cn1c(=O)n(-c2ccc(C(C)(C)C#N)cc2)c2c3cc(-c4cnc5ccccc5c4)ccc3ncc21` [Dactolisib (NVP-BEZ235)], the EC50 [5] was 0.12 ± 0.01 µM, the “Inhibition of L. donovani In Vivo (%) (Mean ± SD)” value (shortened to “Inhibition … (%) (Mean ± SD)”) (L. donovani) was 53 ± 9.50% and the “Inhibition … (%) (Mean ± SD)” value (L. donovani; listed as dactolisib) was 53%. The “LDU in the Liver (Mean ± SD)” value (L. donovani) was 527 ± 108 LDU, the “inhibition … in screening” value [4] was “found active” and the EC50 [2] was 0.38 ± 0.06 µM. For the same compound, the CC50 at 72 h [3] was over 100 µM, the EC50 [1] was 0.36 ± 0.07 µM and the “Selectivity Index (SI)” value [1] was at least 277.8.
For `Cc1cc(Nc2cc(N3CCN(C)CC3)nc(/C=C/c3ccccc3)n2)n[nH]1` [ENMD-2076], the “activity confirmation” value [1] was “either low activity (half maximal effective concentration, EC50) or high toxicity (CC50)”.
With `Fc1ccc(C(OCCN2CCN(CCCc3ccccc3)CC2)c2ccc(F)cc2)cc1` [GBR12909] the “activity confirmation” value [1] was “either low activity (half maximal effective concentration, EC50) or high toxicity (CC50)”.
With `O=S(=O)(NCCNC/C=C/c1ccc(Br)cc1)c1cccc2cnccc12` [H89] the “activity confirmation” value [1] was “either low activity (half maximal effective concentration, EC50) or high toxicity (CC50)”.
For `CCCCCCCCCCCCCCCCOP(=O)([O-])OCC[N+](C)(C)C` [Miltefosine], the “Inhibition … (%) (Mean ± SD)” value (L. donovani) was 87 ± 2.13%, the “LDU in the Liver (Mean ± SD)” value (L. donovani) was 142 ± 24 LDU and the CC50 at 72 h [3] was over 40 µM. For the same compound, the EC50 [1] was 4.81 ± 0.81 µM.
With `COc1ccccc1C1(O)CCN(CCCn2c3ccccc3c3ccccc32)CC1` [NNC05–2090] the “activity confirmation” value [1] was “confirmed to be active”.
With `CCn1nnc2c(N3CCOCC3)nc(-c3ccc(NC(=O)Nc4ccc(C(=O)N5CCN(C)CC5)cc4)cc3)nc21` [PKI-402] the EC50 [5] was 0.26 ± 0.02 µM, the EC50 [2] was 0.49 ± 0.22 µM and the CC50 at 72 h [3] was 28.5 ± 1.2 µM. For the same compound, the EC50 [1] was 13.4 ± 2.35 µM and the “Selectivity Index (SI)” value [1] was 2.1.
In the case of `N=C(N)c1ccc(OCCCCCOc2ccc(C(=N)N)cc2)cc1` [Pentamidine], the EC50 [5] is reported as 0.15 ± 0.01 µM.
For `[O-][S+](c1ccccc1)c1ccc2nnnn2n1` (stereo not drawn) [Ro 106–9920], the “activity confirmation” value [1] was “confirmed to be active”.
With `COc1ccc(CCCOC(Cn2ccnc2)c2ccc(OC)cc2)cc1` (stereo not drawn) [SKF 96365] the “activity confirmation” value [1] was “confirmed to be active”.
`CC(C)n1nc(-c2ccc3oc(N)nc3c2)c2c(N)ncnc21` [Sapanisertib] gave an EC50 [5] of 5.34 ± 0.98 µM, an EC50 [2] of 7.46 ± 1.04 µM and a CC50 at 72 h [3] of over 100 µM. For the same compound, the EC50 [1] was 6.39 ± 1.12 µM.
Work on `CNC(=O)Nc1ccc(-c2nc(N3CC4CCC(C3)O4)c3cnn(C4CCC5(CC4)OCCO5)c3n2)cc1` [WYE-125132] yielded an EC50 [5] of 0.12 ± 0.01 µM, an EC50 [2] of 0.36 ± 0.04 µM and a CC50 at 72 h [3] of 43.3 ± 2.7 µM. The EC50 [1] was 2.26 ± 0.71 µM and the “Selectivity Index (SI)” value [1] was 19.
With `CC(C)c1ccc(C(=O)c2cccs2)c(SCCCCCCCCN(C)C)n1` [Y29794] the “activity confirmation” value [1] was “confirmed to be active”.
With `CN(C)C/C=C/C(=O)Nc1cc2c(Nc3ccc(F)c(Cl)c3)ncnc2cc1O[C@H]1CCOC1` [afatinib] the “activity confirmation” value [1] was “either low activity (half maximal effective concentration, EC50) or high toxicity (CC50)”.
With `COc1cc2c(Oc3ccc4[nH]c(C)cc4c3F)ncnc2cc1OCCCN1CCCC1` [cediranib] the “activity confirmation” value [1] was “either low activity (half maximal effective concentration, EC50) or high toxicity (CC50)”.
For `CO[C@H]1C[C@@H]2CC[C@@H](C)[C@@](O)(O2)C(=O)C(=O)N2CCCC[C@H]2C(=O)O[C@H]([C@H](C)C[C@@H]2CC[C@@H](OP(C)(C)=O)[C@H](OC)C2)CC(=O)[C@H](C)/C=C(\C)[C@@H](O)[C@@H](OC)C(=O)[C@H](C)C[C@H](C)/C=C/C=C/C=C/1C` [deforolimus], the “inhibition … in screening” value [4] was “did not show potent inhibition”.
With `CO[C@H]1C[C@@H]2CC[C@@H](C)[C@@](O)(O2)C(=O)C(=O)N2CCCC[C@H]2C(=O)O[C@H]([C@H](C)C[C@@H]2CC[C@@H](OCCO)[C@H](OC)C2)CC(=O)[C@H](C)/C=C(\C)[C@@H](O)[C@@H](OC)C(=O)[C@H](C)C[C@H](C)/C=C/C=C/C=C/1C` [everolimus] the “inhibition … in screening” value [4] was “did not show potent inhibition”.
With `S=C=Nc1cccc(C2(N3CCCCC3)CCCCC2)c1` [metaphit] the “activity confirmation” value [1] was “confirmed to be active”.
In the case of `CO[C@H]1C[C@@H]2CC[C@@H](C)[C@@](O)(O2)C(=O)C(=O)N2CCCC[C@H]2C(=O)O[C@H]([C@H](C)C[C@@H]2CC[C@@H](O)[C@H](OC)C2)CC(=O)[C@H](C)/C=C(\C)[C@@H](O)[C@@H](OC)C(=O)[C@H](C)C[C@H](C)/C=C/C=C/C=C/1C` [rapamycin], the “inhibition … in screening” value [4] is reported as “did not show potent inhibition”.
With `CO[C@H]1C[C@@H]2CC[C@@H](C)[C@@](O)(O2)C(=O)C(=O)N2CCCC[C@H]2C(=O)O[C@H]([C@H](C)C[C@@H]2CC[C@@H](OC(=O)C(C)(CO)CO)[C@H](OC)C2)CC(=O)[C@H](C)/C=C(\C)[C@@H](O)[C@@H](OC)C(=O)[C@H](C)C[C@H](C)/C=C/C=C/C=C/1C` [temsirolimus] the “inhibition … in screening” value [4] was “did not show potent inhibition”.
